Reference: patent US20060216820A1, “Use of retinoic esters of hyaluronic acid for the differentiation of totipotent stem cells” (SINTOFARM S.P.A., priority 2003, published 2006)

Experiments:
[1] = system: human totipotent stem cells; conditions: totipotent stem cells (Xu et al. 2002); cited from earlier work
P19 cells = conditions: cited from earlier work
GTR1 stem cells [2] = assay: In vitro nuclear run-off transcription in nuclei from treated GTR1 cells; assay type: cell-based, murine; conditions: 1 μM chelerithrine with retinoic esters of hyaluronic acid 0.75 mg/ml, 10 days; puromycin-selected cardiomyocytes
Source text: Gene transcription studies. Gene transcription rate has been analyzed in nuclei isolated by an approach of “in vitro nuclear run-off transcription”, previously described (Ventura C., J Biol Chem. 1997; 272:6685-6692.; Ventura C. et al. J Biol. Chem. 1998; 273:13383-13386.). Briefly, nuclei have been resuspended in buffer containing 50 mmol/L Tris/HCl, pH 8.0, 5 mmol/L MgCl2, 0.1 mmol/L EDTA, 40% glycerol, 0.1 mmol/L dithiothreitol, 0.5 mmol/L phenylmethylsulfonylfluoride, 1 μmol/L leupeptin, and 10 mmol/L β-mercaptoethanol. 100 μl of 2× reaction buffer (10 mmol/L Tris/HCl, pH 7.5, 5 mmol/L MgCl2, 0.3 mol/L KCl, 5 mmol/L dithiothreitol, 1 mmol/L of ATP, GTP, and CTP), and 5 μl of [α-^32P]UTP (3000 Ci/mmol) have been added to the nuclear suspension (90 μl). Samples were then incubated at room temperature for 15 min. The reaction has been stopped by digesting the DNA in presence of RNase-free DNase. The nuclear RNA has been isolated as described in Ventura C et al. J Biol Chem. 1997; 272:6685-6692. Approximately 5×10^6 cpm of ^32P labeled nuclear RNA were hybridized for 12 hours at 55° C. in presence of cold (not radioactive) probes of antisense mRNA of GATA-4, Nkx-2.5 or prodynorphin, generated, as described above, in absence of radiolabeled ribonucleotides. […]

GTR1 stem cells [3] = assay: RT-PCR detection of cardiospecific transcripts (MHC, MLC) in GTR1 cells; assay type: cell-based, murine; conditions: 1 μM chelerithrine with retinoic esters of hyaluronic acid 0.75 mg/ml, 10 days; puromycin-selected cardiomyocytes
Source text: Analysis of gene expression. Total RNA has been extracted from stem cells as described by Ventura et al. (Ventura C et al. J Biol. Chem. 1997; 272: 6685-6692). The levels of specific mRNAs have been analyzed by “RNase protection”, using [^32P]CTP radiolabeled cRNA probes (antisense mRNA) specific for each transcript of interest, according to a previously described protocol (Ventura C et al. J Biol. Chem. 1997; 272:6685-6692). Briefly, fragments corresponding to the main exons of GATA-4 (292 bp), Nkx-2.5 (414 bp) and prodynorphin (424 bp) genes have been inserted in the vector pCRII-TOPO (Invitrdgen). Transcription of the vector linearized With ApaI, BamHI, or XbaI respectively generated sense strand mRNA of prodynorphin, GATA-4, or Nkx-2.5. Transcription in presence of [^32P]CTP of the plasmid linearized with BamHI produced the antisense mRNA strand of prodynorphin and Nkx-2.5, while transcription of the vector linearized with XbaI generated the antisense mRNA strand of GATA-4. In some experiments the analysis of mRNA expression has been performed by means of RT-PCR, as described in (Ventura C, Maioli M. Circ Res. 2000:87:189-194).
GTR1 stem cells were used in these studies. […]

C[S+](C)[O-] [DMSO, dimethylsulfoxide]
percentage of totipotent stem cells undergoing cardiomyocyte differentiation [1]: unable to produce a significant increase
cells that differentiate in embryonic cardiomyocytes (P19 cells; P19 cells in presence of DMSO): 15-20%
overall efficiency of cardiogenic effect (P19 cells; pluripotent murine cells in vitro): rather low

COc1ccc2c(c[n+](C)c3c4cc5c(cc4ccc23)OCO5)c1OC [chelerithrine]
effect of chelerithrine on the ester-induced expression/transcription of cardiogenic genes (GATA-4, Nkx-2.5, prodynorphin) (GTR1 stem cells [2]): antagonized
effect of chelerithrine on the ester-induced expression of cardiospecific genes (MHC, MLC) (GTR1 stem cells [3]): antagonized
